For ten compounds, Ki and EC50 results are on record in patent US20130178413A1, “HCV NS3 PROTEASE INHIBITORS” (priority 2010, published 2013).

The target in one experiment is NS3/4A protease gt 1b (Hepatitis C virus genotype 1b, UniProt P26663). As to the kind of experiment: HCV NS3 protease time-resolved fluorescence (TRF) assay, NS3/4A inhibitory activity (Ki), gt 1b. In kind it is biochemical. The following applies: genotype 1b NS3/4A; read-out: Enzyme Activity gt 1b Ki. An outline of the steps:
(§1)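 NS3/4A protease (gt 1b, 1b A156V, 3a) pre-incubated 30 min with inhibitor in 50 mM HEPES pH 7.5, 150 mM NaCl, 15% glycerol, 0.15% Triton X-100, 10 mM DTT, 0.1% PEG 8000; 100 nM TRF peptide substrate, 1 h at room temperature, quenched with MES pH 5.5. Time-resolved fluorescence (ex 340/em 615 nm); four-parameter IC50 converted to Ki via IC50=Ki(1+[S]/KM).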

Experiment [1] has as its target NS3/4A protease gt 1b A156V (Hepatitis C virus genotype 1b, UniProt P26663, A1182V). The experiment is described as follows: HCV NS3 protease time-resolved fluorescence (TRF) assay, NS3/4A inhibitory activity (Ki), gt 1b A156V mutant. In kind it is biochemical, hepatitis C virus (HCV). The method, boiled down:
as §1

The target of a further experiment is NS3/4A protease gt 3a (Hepatitis C virus genotype 3a, UniProt Q81258). The experiment is described as follows: HCV NS3 protease time-resolved fluorescence (TRF) assay, NS3/4A inhibitory activity (Ki), gt 3a. In kind it is biochemical. The conditions noted are these: genotype 3a NS3/4A; read-out: Enzyme Activity gt 3a Ki. The method, boiled down:
as §1

The next experiment has as its system gt 1b Replicon. As to the kind of experiment: HCV replicon assay, compound inhibitory potency (Replicon EC50). In kind it is cell-based. The following applies: Hepatitis C virus, GT1B. An outline of the steps:
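Stable replicon-harboring cells (neomycin phosphotransferase, some luciferase:Neor fusion) plated with compound dilution series without G418, incubated 24-48 h. Read-out: RNA by 32P-probe protection or TaqMan normalized to cyclophilin A RNA, or luciferase activity; EC50 as percent of DMSO control, four-parameter fit.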
On the technique in general: A replicon is a self-replicating genome or part of one, used to study replication in cells.

Setting [2] is: 10% Fetal Bovine Serum, read-out: gt 1b Replicon EC50 10% FBS.
Setting [3] is: 50% Normal Human Serum, read-out: gt 1b Replicon EC50 50% NHS.

pEC50, pKi: −log10 of the molar value. Read-outs that look alike come from different tables or passages of the source.

One may read the pKi as the Ki on a negative log10 scale, so that one unit is a factor of ten. The pEC50 is the EC50 on a negative log10 scale, so that one unit is a factor of ten. For the compound `CC[C@@H]1C[C@]1(NC(=O)[C@@H]1C[C@@H]2CN1C(=O)[C@H](C1CCCC1)NC(=O)O[C@]1(C)CCC[C@H]1CCCCCc1c(nc3ccccc3c1O)O2)C(=O)NS(=O)(=O)C1CC1` [Example I-18, (3aR,7S,10S,12R,24aR)-7-cyclopentyl-N-{(1R,2R)-1-[(cyclopropylsulfonyl)carbamoyl]-2-ethylcyclopropyl}-19-hydroxy-3a-methyl-5,8-dioxo-1,2,3,3a,5,6,7,8,11,12,20,21,22,23,24, 24a-hexadecahydro-10H-9,12-methano cyclopenta[18,19][1,10,3,6]dioxadiazacyclo nonadecino[11,12-b]quinoline-10-carboxamide], the results for the pKi (at NS3/4A protease gt 1b; in experiment [1]; at NS3/4A protease gt 3a) were 10.15, 7.37 and 8.04, respectively. For the same compound, the pEC50 with gt 1b Replicon (setting [2]) was 7.52; in the experiment with gt 1b Replicon (setting [3]), 7.46.

`C=C[C@@H]1C[C@]1(NC(=O)[C@@H]1C[C@@H]2CN1C(=O)[C@H](C1CCCC1)NC(=O)O[C@]1(C)C[C@H]1CC/C=C/Cn1c(nc3cc(C)ccc3c1=O)O2)C(=O)NS(=O)(=O)C1CC1` [Example I-23, (1aR,5S,8S,10R,20E,23aR)-5-cyclopentyl-N-{(1R,2S)-1-[(cyclopropylsulfonyl)carbamoyl]-2-ethenylcyclopropyl}-1a,14-dimethyl-3,6,17-trioxo-1,1a,3,4,5,6,9,10,19,22,23,23a-dodecahydro-8H,17H-7,10-methano cyclopropa[18,19][1, 10,3,6,12]dioxatriaza cyclononadecino[11,12-b]quinazoline-8-carboxamide]: the pKi on NS3/4A protease gt 1b was 10.70; in experiment [1], 8.92; on NS3/4A protease gt 3a, 9.00. Also, the pEC50 is 8.70 with gt 1b Replicon (setting [2]) and 8.22 in the experiment on gt 1b Replicon (setting [3]).

As for `C=C[C@@H]1C[C@]1(NC(=O)[C@@H]1C[C@@H]2CN1C(=O)[C@H](C1CCCC1)NC(=O)O[C@]1(C)C[C@H]1CC/C=C/Cn1c(nc3cc(C)ccc3c1=O)O2)C(=O)NS(=O)(=O)C1(C)CC1` [Example I-24, (1aR,5S,8S,10R,20E,23aR)-5-cyclopentyl-N-[(1R,2S)-2-ethenyl-1-{[(1-methylcyclopropyl)sulfonyl]carbamoyl}cyclopropyl]-1a,14-dimethyl-3,6,17-trioxo-1,1a,3,4,5,6,9,10,19,22,23,23a-dodecahydro-8H,17H-7,10-methanocyclo propa[18,19][1,10,3,6,12] dioxatriazacyclo nonadecino[11,12-b]quinazoline-8-carboxamide], the pKi on NS3/4A protease gt 1b is 10.70; in experiment [1] it was 9.05; on NS3/4A protease gt 3a it was 9.15. The pEC50 with gt 1b Replicon (setting [2]) was 8.70; in the experiment on gt 1b Replicon (setting [3]), 8.07.

As to `C=C[C@@H]1C[C@]1(NC(=O)[C@@H]1C[C@@H]2CN1C(=O)[C@H](C1CCCC1)NC(=O)O[C@]1(C)C[C@H]1CC/C=C/Cn1c(nc3cc(Cl)ccc3c1=O)O2)C(=O)NS(=O)(=O)C1CC1` [Example I-26, (1aR,5S,8S,10R,20E,23aR)-14-chloro-5-cyclopentyl-N-{(1R,2S)-1-[(cyclopropylsulfonyl)carbamoyl]-2-ethenylcyclopropyl}-1a-methyl-3,6,17-trioxo-1,1a,3,4,5,6,9, 10,19,22,23,23a-dodecahydro-8H,17H-7,10-methano cyclopropa[18,19][1,10,3,6,12]dioxatriaza cyclononadecino[11,12-b]quinazoline-8-carboxamide], the pKi is 10.70 at NS3/4A protease gt 1b, 8.80 in experiment [1] and 9.10 on NS3/4A protease gt 3a. The pEC50 in the experiment with gt 1b Replicon (setting [2]) is 8.52; in the experiment on gt 1b Replicon (setting [3]), 7.89.

For `C=C[C@@H]1C[C@]1(NC(=O)[C@@H]1C[C@@H]2CN1C(=O)[C@H](C1CCCC1)NC(=O)O[C@]1(C)C[C@H]1CCCCCn1c(nc3cc(C)ccc3c1=O)O2)C(=O)NS(=O)(=O)C1CC1` [Example I-27, (1aR,5S,8S,10R,23aR)-5-cyclopentyl-N-{(1R,2S)-1-[(cyclopropylsulfonyl)carbamoyl]-2-ethenylcyclopropyl}-1a,14-dimethyl-3,6,17-trioxo-1,1a,3,4,5,6,9, 10,19,22,21,22,23,23a-tetradecahydro-8H,17H-7,10-methanocyclopropa[18, 19][1,10,3,6,12]dioxatri azacyclononadecino [11,12-b]quinazoline-8-carboxamide], the figures for the pKi (at NS3/4A protease gt 1b; in experiment [1]; at NS3/4A protease gt 3a) were 10.40, 8.39 and 8.55, respectively. Moreover, the pEC50 with gt 1b Replicon (setting [2]) is 8.70; with gt 1b Replicon (setting [3]), 8.22.

In the case of `C=C[C@@H]1C[C@]1(NC(=O)[C@@H]1C[C@@H]2CN1C(=O)[C@H](C1CCCC1)NC(=O)O[C@]1(C)C[C@H]1CCCCCc1nc3ccccc3nc1O2)C(=O)NS(=O)(=O)C1CC1` [Example I-28, (1aR,5S,8S,10R,22aR)-5-cyclopentyl-N-{(1R,2S)-1-[(cyclopropylsulfonyl)carbamoyl]-2-ethenylcyclopropyl}-1a-methyl-3,6-dioxo-1,1a,3,4,5,6,9,10,18,19, 20,21,22,22a-tetradecahydro-8H-7,10-methanocyclo propa[18,19][1,10,3,6] dioxadiazacyclonona decino[11,12-b]quinoxaline-8-carboxamide], the pKi at NS3/4A protease gt 1b was 10.40; in experiment [1] it was 8.57; on NS3/4A protease gt 3a it was 8.49. For the same compound, the pEC50 is 8.70 with gt 1b Replicon (setting [2]) and 8.00 in the experiment on gt 1b Replicon (setting [3]).

As to `C=C[C@@H]1C[C@]1(NC(=O)[C@@H]1C[C@@H]2CN1C(=O)[C@H](C1CCCC1)NC(=O)O[C@]1(C)C[C@H]1CCCCCc1nc3ccccc3nc1O2)C(=O)NS(=O)(=O)C1(C)CC1` [Example I-29, (1aR,5S,8S,10R,22aR)-5-cyclopentyl-N-[(1R,2S)-2-ethenyl-1-{[(1-methylcyclopropyl)sulfonyl]carbamoyl}cyclopropyl]-1a-methyl-3,6-dioxo-1,1a,3,4,5,6,9,10,18,19, 20,21,22,22a-tetradecahydro-8H-7,10-methanocyclo propa[18,19][1,10,3,6] dioxadiazacyclonona decino[11,12-b]quinoxaline-8-carboxamide], the pKi at NS3/4A protease gt 1b was 10.40; in experiment [1] it was 8.77; on NS3/4A protease gt 3a, 8.51. The pEC50 was 8.52 with gt 1b Replicon (setting [2]) and 8.05 in the experiment with gt 1b Replicon (setting [3]).

In the case of `C=C[C@@H]1C[C@]1(NC(=O)[C@@H]1C[C@@H]2CN1C(=O)[C@H](C1CCCC1)NC(=O)O[C@]1(C)C[C@H]1CCCCCc1nc3cccc(OC)c3nc1O2)C(=O)NS(=O)(=O)C1CC1` [Example I-30, (1aR,5S,8S,10R,22aR)-5-cyclopentyl-N-{(1R,2S)-1-[(cyclopropylsulfonyl)carbamoyl]-2-ethenylcyclopropyl}-13-methoxy-1a-methyl-3,6-dioxo-1,1a,3,4,5,6,9,10,18,19,20,21,22,22a-tetradecahydro-8H-7,10-methanocyclo propa[18,19][1,10,3,6] dioxadiazacyclonona decino[11,12-b]quinoxaline-8-carboxamide], the pKi at NS3/4A protease gt 1b was 10.70; in experiment [1], 8.72; on NS3/4A protease gt 3a, 8.66. The pEC50 in the experiment on gt 1b Replicon (setting [2]) was 9.00; in the experiment on gt 1b Replicon (setting [3]) it was 8.30.

Take `CC[C@@H]1C[C@]1(NC(=O)[C@@H]1C[C@@H]2CN1C(=O)[C@H](C1CCCC1)NC(=O)O[C@]1(C)C[C@H]1CC/C=C/Cn1c(nc3cc(C)ccc3c1=O)O2)C(=O)NS(=O)(=O)C1CC1` [Example I-31, (1aR,5S,8S,10R,20E,23aR)-5-cyclopentyl-N-{(1R,2R)-1-[(cyclopropylsulfonyl)carbamoyl]-2-ethylcyclopropyl}-1a,14-dimethyl-3,6,17-trioxo-1,1a,3,4,5,6,9,10,19,22,23,23a-dodecahydro-8H,17H-7,10-methanocyclo propa[18,19][1,10,3,6, 12]dioxatriazacyclo nonadecino[11,12-b]quinazoline-8-carboxamide]: the figures for the pKi (at NS3/4A protease gt 1b; in experiment [1]; on NS3/4A protease gt 3a) were 10.00, 7.88 and 8.28, respectively. Moreover, the values for the pEC50 with gt 1b Replicon (setting [2]) and with gt 1b Replicon (setting [3]) were 8.40 and 8.00, respectively.

With `C=C[C@@H]1C[C@]1(NC(=O)[C@@H]1C[C@@H]2CN1C(=O)[C@H](C(C)(C)C)NC(=O)O[C@]1(C)C[C@H]1CCC/C=C/c1cccc3c1CN(C3)C(=O)O2)C(=O)NS(=O)(=O)C1(C)CC1` [Example I-32, (1aR,5S,8S,10R,19E,23aR)-5-tert-butyl-N-[(1R,2S)-2-ethenyl-1-{[(1-methylcyclopropyl)sulfonyl]carbamoyl}cyclopropyl]-1a-methyl-3,6,12-trioxo-1a,3,4,5,6,9, 10,14,21,22,23,23a-dodecahydro-1H,8H-7,10:13,15-dimethanocyclopropa [n][4,13,2,8,11]benzo dioxatriazacyclo docosine-8(12H)-carboxamide], the values for the pKi (at NS3/4A protease gt 1b; in experiment [1]; at NS3/4A protease gt 3a) were 10.52, 9.00 and 8.74, respectively. Further, the pEC50 in the experiment with gt 1b Replicon (setting [2]) was 9.00; in the experiment on gt 1b Replicon (setting [3]), 7.96.
